# Measured values as given in paper PMC8067314, “Uptake of Vitamins D2, D3, D4, D5, D6, and D7 Solubilized in Mixed Micelles by Human Intestinal Cells, Caco-2, an Enhancing Effect of Lysophosphatidylcholine on the Cellular Uptake, and Estimation of Vitamins D’ Biological Activities” (Nutrients, 2021).
# Key:
# rats [1] = system: rats; design: method as in PMID 9017001; details: cited from earlier work
# rats [2] = details: line test, vitamins D provided as a crystal; cited from earlier work
# rats [3] = details: cited from earlier work
# [4] = system: Caco-2 cells with insufficient cell-cell adhesion; experiment: Uptake of vitamin D2 by adherent Caco-2 cells with insufficient cell-cell adhesion; format: in vitro ADME, human; details: 2-h incubation
# Description: (§1) Since 2001, we have reported that lysophospholipids enhance the uptake of micellar carotenoids in Caco-2 cells. […] In the present study, using the same method, we examined whether the mechanism for the enhancing effect of lysophosphatidylcholine could be adapted to vitamin D, as well. To evaluate the impact of the degree of cell-cell adhesion/cell-matrix adhesion on vitamin D uptake by cells, we prepared in two different ways: i) dispersed Caco-2 cells without cell-cell adhesion/cell-matrix adhesion and ii) Caco-2 cells with insufficient cell-cell adhesion.
# (ii): The cells that had insufficient cell-cell adhesion were prepared by reducing the culture period from 20–22 d for full differentiation to <7 d after the seeding described above.
# (§2) Subsequent operations are common to the two models of cells. The medium consisting of mixed micellar vitamin D (0.5 mL) was added to adhered cells or dispersed cells in individual wells containing FBS-free DMEM (0.5 mL), resulting in a total medium volume of 1.0 mL/well, and the final start concentrations of mixed micellar components were one-half the initial concentration. The cells were incubated in the same conditions as described above, i.e., in a CO2 incubator at 37 °C for 2 h, and then the cells were washed with 2 mM taurocholate/PBS, followed by two times with PBS. The vitamin D uptake and residual mixed micellar vitamin D were evaluated as the previous subsection, but the filtrate of residual mixed micellar vitamin D was diluted with a 2x-volume of H2O. The cellular protein content was also determined as above.
# chicks = details: cited from earlier work
# dispersed Caco-2 cells = experiment: Uptake of vitamin D from mixed micelles by dispersed Caco-2 cells; format: in vitro ADME, human; details: dispersed Caco-2 cells, 2 h
# Description: as §1
# (i): The dispersed cells were prepared by trypsin treatment. After collecting the cells in the culture medium, the number of cells was counted and diluted with the medium. The cells were washed two times with FBS-free DMEM and then seeded in culture plate of 24-well for suspension cultures (SC plate; Greiner Bio-One, Frickenhausen, Germany) at a density of 15 × 10^4 cells per well containing the FBS-free DMEM (0.5 mL).
# as §2
SMILES,"Activity for increasing the blood concentration of calcium relative to 1,25-di(OH)-vitamin D3 (rats [1])","Anti-rickets activity, comparison of vitamins D (rats [2])",Intestinal absorption compared with vitamin D3 (rats [3]),"Vitamin D2 uptake, NoPC vs lysoPC mixed micelles ([4]; Caco-2 cells cultured for 3 d)","Vitamin D2 uptake, NoPC vs lysoPC mixed micelles ([4]; Caco-2 cells cultured for 5 d)","Vitamin D2 uptake, NoPC vs lysoPC mixed micelles ([4]; Caco-2 cells cultured for 7 d)",Intestinal absorption compared with vitamin D3 or D4 (chicks),Vitamin-D2 uptake from lysoPC mixed micelles relative to that from NoPC mixed micelles (dispersed Caco-2 cells)
C=C1/C(=C\C=C2/CCC[C@]3(C)[C@@H]([C@H](C)CC[C@@H](CC)C(C)C)CC[C@@H]23)C[C@@H](O)C[C@@H]1O [1-OH-vitamin D5],approximately one-sixth,–,–,–,–,–,–,–
C=C1CC[C@H](O)C/C1=C/C=C1\CCC[C@]2(C)[C@@H]([C@H](C)/C=C/[C@H](C)C(C)C)CC[C@@H]12 [Vitamin D2],–,highest activities and were similar,slightly more easily absorbed than vitamin D3,significantly higher by cells cultured for 3 d from NoPC mixed micelles,no difference in the uptake amounts between NoPC mixed micelles and lysoPC mixed micelles,uptake from lysoPC mixed micelles were significantly higher than those from NoPC mixed micelles,less absorbed than vitamin D3,approximately one-sixth
